Measured values from ChEMBL document CHEMBL4433259, “Rifamycin derivatives active against pathogenic rapidly-growing mycobacteria” (Bioorg Med Chem Lett, 2019).
Calls of active or inactive are those of the source. The rule behind the calls is not given here.

What was measured:
[1] = test system: Mycobacteroides abscessus; assay: Antimycobacterial activity against Mycobacterium abscessus ATCC 19977 assessed as inhibition zone diameter at 3.125 ng after 3 days by disc diffusion method; assay type: functional
[2] = Antimycobacterial activity against Mycobacterium abscessus subsp. massiliense assessed as reduction in microbial growth by CLSI method; assay type: functional; conditions: Mycobacteroides abscessus
[3] = Antimycobacterial activity against Mycobacterium abscessus subsp. bolletii assessed as reduction in microbial growth by CLSI method; assay type: functional; conditions: Mycobacteroides abscessus
[4] = test system: Mycolicibacterium fortuitum; assay: Antimycobacterial activity against Mycobacterium fortuitum assessed as reduction in microbial growth by CLSI method; assay type: functional
Mycobacteroides chelonae = assay: Antimycobacterial activity against Mycobacterium chelonae assessed as reduction in microbial growth by CLSI method; assay type: functional
[5] = Antimycobacterial activity against Mycobacterium abscessus subsp. abscessus assessed as reduction in microbial growth by CLSI method; assay type: functional; conditions: Mycobacteroides abscessus
[6] = test system: Mycolicibacterium smegmatis; assay: Antimycobacterial activity against Mycobacterium smegmatis assessed as reduction in microbial growth by CLSI method; assay type: functional
[7] = test system: Mycobacteroides abscessus; assay: Antimycobacterial activity against Mycobacterium abscessus ATCC 19977 assessed as inhibition zone diameter at 800 ng after 3 days by disc diffusion method; assay type: functional
[8] = test system: Mycobacteroides abscessus; assay: Antimycobacterial activity against Mycobacterium abscessus ATCC 19977 assessed as inhibition zone diameter at 400 ng after 3 days by disc diffusion method; assay type: functional
[9] = test system: Mycobacteroides abscessus; assay: Antimycobacterial activity against Mycobacterium abscessus ATCC 19977 assessed as inhibition zone diameter at 200 ng after 3 days by disc diffusion method; assay type: functional
[10] = test system: Mycobacteroides abscessus; assay: Antimycobacterial activity against Mycobacterium abscessus ATCC 19977 assessed as inhibition zone diameter at 100 ng after 3 days by disc diffusion method; assay type: functional
[11] = test system: Mycobacteroides abscessus; assay: Antimycobacterial activity against Mycobacterium abscessus ATCC 19977 assessed as inhibition zone diameter at 50 ng after 3 days by disc diffusion method; assay type: functional
[12] = test system: Mycobacteroides abscessus; assay: Antimycobacterial activity against Mycobacterium abscessus ATCC 19977 assessed as inhibition zone diameter at 25 ng after 3 days by disc diffusion method; assay type: functional
[13] = test system: Mycobacteroides abscessus; assay: Antimycobacterial activity against Mycobacterium abscessus ATCC 19977 assessed as inhibition zone diameter at 12.5 ng after 3 days by disc diffusion method; assay type: functional
[14] = test system: Mycobacteroides abscessus; assay: Antimycobacterial activity against Mycobacterium abscessus ATCC 19977 assessed as inhibition zone diameter at 6.25 ng after 3 days by disc diffusion method; assay type: functional
[15] = test system: Mycobacteroides abscessus; assay: Antimycobacterial activity against Mycobacterium abscessus ATCC 19977 assessed as inhibition zone diameter at 1.56 ng after 3 days by disc diffusion method; assay type: functional
[16] = test system: Mycobacteroides abscessus; assay: Antimycobacterial activity against Mycobacterium abscessus FM0058 clinical isolate assessed as inhibition zone diameter at 800 ng after 3 days by disc diffusion method; assay type: functional
[17] = test system: Mycobacteroides abscessus; assay: Antimycobacterial activity against Mycobacterium abscessus FM0058 clinical isolate assessed as inhibition zone diameter at 400 ng after 3 days by disc diffusion method; assay type: functional
[18] = test system: Mycobacteroides abscessus; assay: Antimycobacterial activity against Mycobacterium abscessus FM0058 clinical isolate assessed as inhibition zone diameter at 200 ng after 3 days by disc diffusion method; assay type: functional
[19] = test system: Mycobacteroides abscessus; assay: Antimycobacterial activity against Mycobacterium abscessus FM0058 clinical isolate assessed as inhibition zone diameter at 100 ng after 3 days by disc diffusion method; assay type: functional
[20] = test system: Mycobacteroides abscessus; assay: Antimycobacterial activity against Mycobacterium abscessus FM0058 clinical isolate assessed as inhibition zone diameter at 50 ng after 3 days by disc diffusion method; assay type: functional
[21] = test system: Mycobacteroides abscessus; assay: Antimycobacterial activity against Mycobacterium abscessus FM0058 clinical isolate assessed as inhibition zone diameter at 25 ng after 3 days by disc diffusion method; assay type: functional
[22] = test system: Mycobacteroides abscessus; assay: Antimycobacterial activity against Mycobacterium abscessus FM0058 clinical isolate assessed as inhibition zone diameter at 12.5 ng after 3 days by disc diffusion method; assay type: functional
[23] = test system: Mycobacteroides abscessus; assay: Antimycobacterial activity against Mycobacterium abscessus FM0058 clinical isolate assessed as inhibition zone diameter at 6.25 ng after 3 days by disc diffusion method; assay type: functional
[24] = test system: Mycobacteroides abscessus; assay: Antimycobacterial activity against Mycobacterium abscessus FM0058 clinical isolate assessed as inhibition zone diameter at 3.125 ng after 3 days by disc diffusion method; assay type: functional
[25] = test system: Mycobacteroides abscessus; assay: Antimycobacterial activity against Mycobacterium abscessus FM0058 clinical isolate assessed as inhibition zone diameter at 1.56 ng after 3 days by disc diffusion method; assay type: functional
[26] = test system: Mycobacteroides abscessus; assay: Antimycobacterial activity against Mycobacterium abscessus ATCC 19977 assessed as inhibition zone diameter at <3 ng after 3 days by disc diffusion method; assay type: functional, organism-based
[27] = test system: Mycobacteroides abscessus; assay: Antimycobacterial activity against Mycobacterium abscessus FM0058 clinical isolate assessed as inhibition zone diameter at <3 ng after 3 days by disc diffusion method; assay type: functional, organism-based
[28] = Drug metabolism in Mycobacterium abscessus ATCC 19977 assessed as adenine ribosylated diphosphate derivative formation by LC/MS analysis; assay type: ADME; conditions: Mycobacteroides abscessus
[29] = Drug metabolism in Mycobacterium abscessus ATCC 19977 assessed as C23 ribosylated derivative formation by LC/MS analysis relative to control; assay type: ADME; conditions: Mycobacteroides abscessus

SMILES | diameter of the inhibition zone (DIZ) [1] [mm] | MIC [2] [µg/mL] | MIC [3] [µg/mL] | MIC [4] [µg/mL] | MIC (Mycobacteroides chelonae) [µg/mL] | MIC [5] [µg/mL] | MIC [6] [µg/mL] | diameter of the inhibition zone (DIZ) [7] [mm] | diameter of the inhibition zone (DIZ) [8] [mm] | diameter of the inhibition zone (DIZ) [9] [mm] | diameter of the inhibition zone (DIZ) [10] [mm] | diameter of the inhibition zone (DIZ) [11] [mm] | diameter of the inhibition zone (DIZ) [12] [mm] | diameter of the inhibition zone (DIZ) [13] [mm] | diameter of the inhibition zone (DIZ) [14] [mm] | diameter of the inhibition zone (DIZ) [15] [mm] | diameter of the inhibition zone (DIZ) [16] [mm] | diameter of the inhibition zone (DIZ) [17] [mm] | diameter of the inhibition zone (DIZ) [18] [mm] | diameter of the inhibition zone (DIZ) [19] [mm] | other results
CO[C@H]1/C=C/O[C@@]2(C)Oc3c(C)c(O)c4c(O)c(c(/C=N/N5CCN(C)CC5)c(O)c4c3C2=O)NC(=O)/C(C)=C\C=C\[C@H](C)[C@H](O)[C@@H](C)[C@@H](O)[C@@H](C)[C@H](OC(C)=O)[C@@H]1C [RIFAMPIN] | 0 | > 64 | > 64 | > 64 | > 64 | > 64 | 32 | 0 | 0 | 0 | 0 | 0 | 0 | 0 | 0 | 0 | 0 | 0 | 0 | 0 | diameter of the inhibition zone (DIZ) [20]: 0 mm; diameter of the inhibition zone (DIZ) [21]: 0 mm; diameter of the inhibition zone (DIZ) [22]: 0 mm; diameter of the inhibition zone (DIZ) [23]: 0 mm; diameter of the inhibition zone (DIZ) [24]: 0 mm; diameter of the inhibition zone (DIZ) [25]: 0 mm; diameter of the inhibition zone (DIZ) [26]: inactive; diameter of the inhibition zone (DIZ) [27]: inactive; Drug metabolism [28]: Metabolite_Notdetected
CO[C@H]1/C=C/O[C@@]2(C)Oc3c(C)c(O)c4c(c3C2=O)C(=O)C(N2CCOCC2)=C(NC(=O)/C(C)=C\C=C\[C@H](C)[C@H](O)[C@@H](C)[C@@H](O)[C@@H](C)[C@H](OC(=O)NCc2ccc(N(C)C)cc2)[C@@H]1C)C4=O |  | 8 | 8 | 1 | 16 | 8 | 0.06 |  |  |  |  |  |  |  |  |  |  |  |  |  | 
COc1ccc(CNC(=O)O[C@H]2[C@H](C)[C@H](O)[C@H](C)[C@@H](O)[C@@H](C)/C=C/C=C(/C)C(=O)NC3=C(N4CCOCC4)C(=O)c4c(c(O)c(C)c5c4C(=O)[C@@](C)(O/C=C/[C@H](OC)[C@H]2C)O5)C3=O)cc1 |  | 8 | 16 | 1 | > 64 | 64 | 0.06 |  |  |  |  |  |  |  |  |  |  |  |  |  | 
CO[C@H]1/C=C/O[C@@]2(C)Oc3c(C)c(O)c4c(c3C2=O)C(=O)C(N2CCOCC2)=C(NC(=O)/C(C)=C\C=C\[C@H](C)[C@H](O)[C@@H](C)[C@@H](O)[C@@H](C)[C@H](OC(=O)NCc2cc(-c3ccccc3)no2)[C@@H]1C)C4=O | 0 | 0.5 | 0.125 | 0.0625 | 0.5 | 0.5 |  | 24 | 20 | 16 | 12 | 7 | 0 | 0 | 0 | 0 | >30 | 26 | 21 | 17 | diameter of the inhibition zone (DIZ) [20]: 13 mm; diameter of the inhibition zone (DIZ) [21]: 7 mm; diameter of the inhibition zone (DIZ) [22]: 0 mm; diameter of the inhibition zone (DIZ) [23]: 0 mm; diameter of the inhibition zone (DIZ) [24]: 0 mm; diameter of the inhibition zone (DIZ) [25]: 0 mm; diameter of the inhibition zone (DIZ) [26]: inactive; diameter of the inhibition zone (DIZ) [27]: inactive
CO[C@H]1/C=C/O[C@@]2(C)Oc3c(C)c(O)c4c(c3C2=O)C(=O)C(N2CCOCC2)=C(NC(=O)/C(C)=C\C=C\[C@H](C)[C@H](O)[C@@H](C)[C@@H](O)[C@@H](C)[C@H](OC(=O)NCc2cc(-c3ccccn3)no2)[C@@H]1C)C4=O | 0 | 8 | 8 | 1 | 64 | 8 | 0.5 | 27 | 24 | 20 | 16 | 14 | 0 | 0 | 0 | 0 | >30 | 30 | 25 | 20 | diameter of the inhibition zone (DIZ) [20]: 9 mm; diameter of the inhibition zone (DIZ) [21]: 0 mm; diameter of the inhibition zone (DIZ) [22]: 0 mm; diameter of the inhibition zone (DIZ) [23]: 0 mm; diameter of the inhibition zone (DIZ) [24]: 0 mm; diameter of the inhibition zone (DIZ) [25]: 0 mm; diameter of the inhibition zone (DIZ) [26]: inactive; diameter of the inhibition zone (DIZ) [27]: inactive
CO[C@H]1/C=C/O[C@@]2(C)Oc3c(C)c(O)c4c(c3C2=O)C(=O)C(N2CCOCC2)=C(NC(=O)/C(C)=C\C=C\[C@H](C)[C@H](O)[C@@H](C)[C@@H](O)[C@@H](C)[C@H](OC(=O)NCCN(C(C)C)C(C)C)[C@@H]1C)C4=O |  | 1 | 0.25 | 8 | 1 | 0.5 |  |  |  |  |  |  |  |  |  |  |  |  |  |  | 
CO[C@H]1/C=C/O[C@@]2(C)Oc3c(C)c(O)c4c(c3C2=O)C(=O)C(N2CCOCC2)=C(NC(=O)/C(C)=C\C=C\[C@H](C)[C@H](O)[C@@H](C)[C@@H](O)[C@@H](C)[C@H](OC(=O)NC2CCN(Cc3ccccc3)CC2)[C@@H]1C)C4=O | 0 | 0.25 | 0.0625 | < 0.03 | < 0.03 | < 0.03 | 0.12 | >30 | >30 | >30 | 24 | 21 | 16 | 13 | 0 | 0 | >30 | >30 | 29 | 24 | diameter of the inhibition zone (DIZ) [20]: 22 mm; diameter of the inhibition zone (DIZ) [21]: 20 mm; diameter of the inhibition zone (DIZ) [22]: 16 mm; diameter of the inhibition zone (DIZ) [23]: 11 mm; diameter of the inhibition zone (DIZ) [24]: 0 mm; diameter of the inhibition zone (DIZ) [25]: 0 mm; diameter of the inhibition zone (DIZ) [26]: inactive; diameter of the inhibition zone (DIZ) [27]: inactive; Drug metabolism [29]: Metabolite_Notdetected; Drug metabolism [28]: Metabolite_Notdetected
COc1ccccc1-c1cc(CNC(=O)O[C@H]2[C@H](C)[C@H](O)[C@H](C)[C@@H](O)[C@@H](C)/C=C/C=C(/C)C(=O)NC3=C(N4CCOCC4)C(=O)c4c(c(O)c(C)c5c4C(=O)[C@@](C)(O/C=C/[C@H](OC)[C@H]2C)O5)C3=O)on1 |  | 64 | 16 | 0.25 | 64 | 64 | 0.12 |  |  |  |  |  |  |  |  |  |  |  |  |  | 
